Laboratory results as given in US11945822B2, “Pyrazolo-triazine and/or pyrazolo-pxrimidine derivatives as selective inhibitor of cyclin dependent kinase” (QURIENT CO., LTD., priority 2018, dated 2024).
Where two headings read alike, the source gives them in different places.

How the values were obtained:
H460 = experiment: Cellular H460 viability assay (CellTiter-Glo, 72 hours); assay type: cell-based; conditions: Homo sapiens, NCI-H460
Description: All cell lines were routinely tested for mycoplasma.
The effect of the CDK7 inhibitor to inhibit the growth of target cancer cells was evaluated through the 72 hours time period of viability assay. Briefly, the candidate cell line ware plated in 96 well plate at the following density of cells respectively. […] DMSO solvent without compound served as a control and final DMSO concentration less than 0.1%. After 72 hours of incubation at 37° C., 5% CO2 incubator, cells were analyzed for the viability using the CellTiter-Glo Luminescent Cell Viability Assay (Promega, Cat #G7570). All viability assays were performed in duplicate and Luminescence was read using an Envision (Perkin Elmer, USA). Data was analyzed using XLfit software.

CDK1/Cyclin B = target: T1, CDK1/Cyclin B (Homo sapiens, UniProt P06493); experiment: Enzymatic assay for CDK1 (FRET based LANCE Ultra kinase assay); assay type: biochemical
T1 construct: purchased Invitrogen PR4768C
Description: (§1) Enzymatic Binding Assay Protocol for CDK1, CDK2, CDK5 and CDK7
(§2) Inhibition activity of the respective compound on CDK kinase under Km value of ATP was tested in FRET based The LANCE® Ultra kinase assay (Perkin Elmer), which uses a ULight™-labeled peptide substrate and an appropriate Europium-labeled anti-phospho-antibody. Test compounds were made with DMSO solutions, and then 4-fold serial dilutions for 8 doses were prepared using automated liquid handler (POD810, LABCYTE) and 80 nL/well of diluted compound solutions were added into the 384-well plates (Greiner, Cat #784075). And then 68 nM of ULight-MBP peptide (Perkin Elmer, Cat #TRF0109-M) and 5 ul/well of ATP (Sigma, Cat #A7699) were added to the plate. After 1 min centrifugation at 1000 rpm, Purified CDKs/Cyclin complex were added following concentrations respectively. 24 uM for CDK1/Cyclin B (Invitrogen, Cat #PR4768C), 22 uM for CDK2/Cyclin A (Invitrogen, Cat #PV6290), 10 uM for CDK5/p25 (Invitrogen, Cat #PR8543B) and […] for CDK7/Cyclin H/MNAT1 (Invitrogen, Cat #PR6749B) were added to the each corresponding plate for CDK1, CDK2, CDK5 and CDK7. Incubate at 23° C. for 60 min and then Eu-labeled anti-phospho-Myelin Basic Protein (PE, Cat #TRF0201-M) and EDTA (Invitrogen, Cat #15575038) mixture in Lance Detection Buffer (Perkin Elmer, Cat #CR97100) was added in each well. After additional incubation at 23° C. for 60 min, test articles were measured the fluorescence using Envision leader (Perkin Elmer, USA) [Laser as excitation light; […] as the first and the second emission filter]. Data was analyzed using XL Fit software.

CDK2/Cyclin A = target: T2, CDK2/Cyclin A (Homo sapiens, UniProt P24941); experiment: Enzymatic assay for CDK2 (FRET based LANCE Ultra kinase assay); assay type: biochemical
T2 construct: purchased Invitrogen PV6290
Description: as §1, §2

CDK5/p25 = target: T3, CDK5/p25 (Homo sapiens, UniProt Q00535); experiment: Enzymatic assay for CDK5 (FRET based LANCE Ultra kinase assay); assay type: biochemical
T3 construct: purchased Invitrogen PR8543B
Description: as §1, §2

CDK7/Cyclin H/MNAT1 = target: T4, CDK7/Cyclin H/MNAT1 (Homo sapiens, UniProt P50613); experiment: Enzymatic assay for CDK7 (FRET based LANCE Ultra kinase assay); assay type: biochemical
T4 construct: purchased Invitrogen PR6749B
Description: as §1
Inhibition activity of the respective compound on CDK kinase under Km value of ATP was tested in FRET based The LANCE® Ultra kinase assay (Perkin Elmer), which uses a ULight™-labeled peptide substrate and an appropriate Europium-labeled anti-phospho-antibody. […] After 1 min centrifugation at 1000 rpm, Purified CDKs/Cyclin complex were added following concentrations respectively. […] Data was analyzed using XL Fit software.

[1] = read-out: CDK1 enzymatic activity (IC50 range)
[2] = read-out: CDK2 enzymatic activity (IC50 range)
[3] = read-out: CDK5 enzymatic activity (IC50 range)
[4] = read-out: CDK7 enzymatic activity (IC50 range)

T1 sequence (P06493 whole entry): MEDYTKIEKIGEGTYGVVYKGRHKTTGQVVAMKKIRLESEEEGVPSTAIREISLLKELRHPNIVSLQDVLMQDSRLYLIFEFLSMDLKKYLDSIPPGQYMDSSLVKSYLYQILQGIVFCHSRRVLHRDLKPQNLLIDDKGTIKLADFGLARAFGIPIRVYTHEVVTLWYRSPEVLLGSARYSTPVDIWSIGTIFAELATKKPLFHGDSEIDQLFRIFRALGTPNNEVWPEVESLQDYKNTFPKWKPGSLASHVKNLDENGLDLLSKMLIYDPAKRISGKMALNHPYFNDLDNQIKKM
T1 sequence (P14635 whole entry partner): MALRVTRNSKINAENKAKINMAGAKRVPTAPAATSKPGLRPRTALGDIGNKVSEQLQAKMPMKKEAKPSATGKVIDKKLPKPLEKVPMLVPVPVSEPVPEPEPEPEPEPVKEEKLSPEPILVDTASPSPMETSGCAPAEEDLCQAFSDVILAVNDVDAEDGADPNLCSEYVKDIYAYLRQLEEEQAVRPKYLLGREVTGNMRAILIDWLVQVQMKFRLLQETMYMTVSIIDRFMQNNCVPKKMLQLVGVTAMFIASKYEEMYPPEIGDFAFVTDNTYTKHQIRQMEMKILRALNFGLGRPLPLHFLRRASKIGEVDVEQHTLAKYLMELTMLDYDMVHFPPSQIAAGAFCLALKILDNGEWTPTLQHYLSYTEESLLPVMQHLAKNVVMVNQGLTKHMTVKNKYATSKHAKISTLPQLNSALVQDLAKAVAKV
T4 sequence (P50613 whole entry): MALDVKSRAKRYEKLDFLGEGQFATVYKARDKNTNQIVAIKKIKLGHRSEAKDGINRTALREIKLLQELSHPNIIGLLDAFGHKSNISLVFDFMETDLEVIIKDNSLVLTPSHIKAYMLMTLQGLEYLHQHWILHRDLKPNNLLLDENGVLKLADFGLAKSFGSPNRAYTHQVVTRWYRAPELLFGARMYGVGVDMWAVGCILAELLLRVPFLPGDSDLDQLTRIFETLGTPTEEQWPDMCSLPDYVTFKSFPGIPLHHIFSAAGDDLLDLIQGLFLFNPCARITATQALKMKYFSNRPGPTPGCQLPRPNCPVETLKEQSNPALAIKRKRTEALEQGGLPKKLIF
T4 sequence (P51946 whole entry partner): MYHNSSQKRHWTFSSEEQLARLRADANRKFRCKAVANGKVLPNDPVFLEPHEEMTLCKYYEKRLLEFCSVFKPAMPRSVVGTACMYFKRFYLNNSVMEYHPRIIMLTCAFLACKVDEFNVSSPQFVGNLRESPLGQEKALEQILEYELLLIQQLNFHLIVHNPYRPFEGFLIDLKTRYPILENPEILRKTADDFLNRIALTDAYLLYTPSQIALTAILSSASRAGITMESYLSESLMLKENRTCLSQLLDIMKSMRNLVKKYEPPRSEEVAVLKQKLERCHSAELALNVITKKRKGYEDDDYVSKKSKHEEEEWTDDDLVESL
T4 sequence (P51948 whole entry partner): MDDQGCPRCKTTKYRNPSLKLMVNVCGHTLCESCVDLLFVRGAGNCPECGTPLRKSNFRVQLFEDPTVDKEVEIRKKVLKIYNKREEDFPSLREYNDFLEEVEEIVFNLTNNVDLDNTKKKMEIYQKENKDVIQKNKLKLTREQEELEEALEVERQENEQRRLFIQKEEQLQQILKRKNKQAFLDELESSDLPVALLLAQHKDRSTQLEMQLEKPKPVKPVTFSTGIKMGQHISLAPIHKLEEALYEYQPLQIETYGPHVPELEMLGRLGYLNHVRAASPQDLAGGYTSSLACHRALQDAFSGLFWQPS
T3 sequence (Q00535 whole entry): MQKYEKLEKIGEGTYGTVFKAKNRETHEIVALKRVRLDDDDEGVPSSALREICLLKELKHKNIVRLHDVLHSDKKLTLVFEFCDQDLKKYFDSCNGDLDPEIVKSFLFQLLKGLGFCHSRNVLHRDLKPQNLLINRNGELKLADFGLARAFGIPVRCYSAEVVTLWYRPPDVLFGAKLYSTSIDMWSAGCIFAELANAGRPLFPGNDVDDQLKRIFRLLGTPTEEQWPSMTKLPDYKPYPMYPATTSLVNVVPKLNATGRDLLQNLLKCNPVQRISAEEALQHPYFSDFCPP
T3 sequence (Q15078 99-307 partner limits assumed): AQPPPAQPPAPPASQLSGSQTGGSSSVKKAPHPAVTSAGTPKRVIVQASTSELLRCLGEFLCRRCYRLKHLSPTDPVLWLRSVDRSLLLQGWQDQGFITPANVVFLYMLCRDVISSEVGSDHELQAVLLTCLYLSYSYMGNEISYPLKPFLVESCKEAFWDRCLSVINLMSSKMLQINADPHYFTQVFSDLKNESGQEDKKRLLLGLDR

| SMILES | IC50 (H460) [µM] | IC50 (CDK1/Cyclin B; [1]) [µM] | IC50 (CDK2/Cyclin A; [2]) [µM] | IC50 (CDK5/p25; [3]) [µM] | CDK1/CDK7: Selectivity of CDK7 inhibition over CDK1 inhibition (CDK7/Cyclin H/MNAT1; CDK7 over CDK1) | CDK2/CDK7: Selectivity of CDK7 inhibition over CDK2 inhibition (CDK7/Cyclin H/MNAT1; CDK7 over CDK2) | CDK5/CDK7: Selectivity of CDK7 inhibition over CDK5 inhibition (CDK7/Cyclin H/MNAT1; CDK7 over CDK5) | IC50 (CDK7/Cyclin H/MNAT1; [4]) [µM] | IC50 (CDK1/Cyclin B; read-out: CDK1 enzymatic activity (IC50 activity range)) [µM] | IC50 (CDK2/Cyclin A; read-out: CDK2 enzymatic activity (IC50 activity range)) [µM] | IC50 (CDK5/p25; read-out: CDK5 enzymatic activity (IC50 activity range)) [µM] | CDK1/CDK7: Selectivity of CDK7 inhibition over CDK1 inhibition (CDK7/Cyclin H/MNAT1; CDK1/CDK7) | CDK2/CDK7: Selectivity of CDK7 inhibition over CDK2 inhibition (CDK7/Cyclin H/MNAT1; CDK2/CDK7) | CDK5/CDK7: Selectivity of CDK7 inhibition over CDK5 inhibition (CDK7/Cyclin H/MNAT1; CDK5/CDK7) | IC50 (CDK7/Cyclin H/MNAT1; read-out: CDK7 enzymatic activity (IC50 activity range)) [µM] |
| --- | --- | --- | --- | --- | --- | --- | --- | --- | --- | --- | --- | --- | --- | --- | --- |
| NC1CCN(c2nc(NCc3ccccc3-n3cccn3)n3ncc(Cl)c3n2)CC1 [Compound 29] | 1 to 10 | – | – | – | – | – | – | – | – | – | – | – | – | – | – |
| CC(C)c1cnn2c(NCc3ccccc3-n3cccn3)nc(-c3ccc(C4CCNCC4)cc3)nc12 [Compound 168] | – | > 1 | 0.1 to 1 | 0.1 to 1 | A (A=greater than 200 fold) | B (B=less than 200 fold, but greater than 20 fold) | B (B=less than 200 fold, but greater than 20 fold) | < 0.1 | – | – | – | – | – | – | – |
| CC(C)c1cnn2c(NCc3cccc4cnn(C)c34)nc(N3CCC(N)CC3)nc12 [Compound 10] | < 1 | 0.1 to 1 | 0.1 to 1 | < 0.1 | B (B=less than 200 fold, but greater than 20 fold) | B (B=less than 200 fold, but greater than 20 fold) | C (C=less than 20 fold) | < 0.1 | – | – | – | – | – | – | – |
| CC(C)c1cnn2c(NCc3ccccc3Br)nc(N3CCC(N)CC3)nc12 [Compound 22] | < 1 | – | – | – | – | – | – | – | – | – | – | – | – | – | – |
| Cc1cccc(-c2cc(C(C)(C)O)n(C)n2)c1CNc1nc(N2CCC(N)CC2)nc2c(C(C)C)cnn12 [Compound 259] | – | – | – | – | – | – | – | – | > 1 | > 1 | > 1 | A (A=greater than 200 fold) | A (A=greater than 200 fold) | A (A=greater than 200 fold) | < 0.1 |
| Cc1nc2c(CNc3nc(N4CCC(N)CC4)nc4c(C(C)C)cnn34)cccc2o1 [Compound 33] | < 1 | 0.1 to 1 | 0.1 to 1 | < 0.1 | B (B=less than 200 fold, but greater than 20 fold) | B (B=less than 200 fold, but greater than 20 fold) | C (C=less than 20 fold) | < 0.1 | – | – | – | – | – | – | – |
| CNC(=O)c1cccnc1CNc1nc(N2CCC(N)CC2)nc2c(C(C)(C)C)cnn12 [Compound 15] | – | > 1 | > 1 | > 1 | A (A=greater than 200 fold) | A (A=greater than 200 fold) | B (B=less than 200 fold, but greater than 20 fold) | < 0.1 | – | – | – | – | – | – | – |
| CC(C)c1cnn2c(NCc3ccccc3-n3cccn3)nc(C3CCNCC3)nc12 [Compound 23] | < 1 | – | – | – | – | – | – | – | – | – | – | – | – | – | – |
| CC(C)c1cnn2c(NCc3ccccc3-c3cc4cccc(NC(=O)N(C)C)c4[nH]3)nc(N3CCC(N)CC3)nc12 [Compound 149] | < 1 | 0.1 to 1 | < 0.1 | < 0.1 | B (B=less than 200 fold, but greater than 20 fold) | B (B=less than 200 fold, but greater than 20 fold) | C (C=less than 20 fold) | < 0.1 | – | – | – | – | – | – | – |
| CCCNC(=O)Nc1ccccc1CNc1nc(N2CCC(N)CC2)nc2c(C(C)C)cnn12 [Compound 11] | < 1 | > 1 | 0.1 to 1 | 0.1 to 1 | A (A=greater than 200 fold) | B (B=less than 200 fold, but greater than 20 fold) | B (B=less than 200 fold, but greater than 20 fold) | < 0.1 | – | – | – | – | – | – | – |
| CC(C)c1cnn2c(NCc3ccccc3-n3cccn3)nc([C@H]3CC[C@H](N)CC3)nc12 [Compound 25] | < 1 | 0.1 to 1 | < 0.1 | < 0.1 | B (B=less than 200 fold, but greater than 20 fold) | C (C=less than 20 fold) | C (C=less than 20 fold) | < 0.1 | – | – | – | – | – | – | – |
| NC1CCN(c2nc(NCc3ccccc3-n3cccn3)n3ncc(C4CCCC4)c3n2)CC1 [Compound 12] | < 1 | 0.1 to 1 | 0.1 to 1 | < 0.1 | B (B=less than 200 fold, but greater than 20 fold) | B (B=less than 200 fold, but greater than 20 fold) | C (C=less than 20 fold) | < 0.1 | – | – | – | – | – | – | – |
| CC(C)c1cnn2c(NCc3ccc(Cl)c(-n4cccn4)c3)nc(N3CCC(N)CC3)nc12 [Compound 67] | 1 to 10 | > 1 | 0.1 to 1 | 0.1 to 1 | B (B=less than 200 fold, but greater than 20 fold) | C (C=less than 20 fold) | C (C=less than 20 fold) | < 0.1 | – | – | – | – | – | – | – |
| CC(C)c1cnn2c(NCc3c[nH]c4ccccc34)nc(N3CCC(N)CC3)nc12 [Compound 28] | – | > 1 | 0.1 to 1 | 0.1 to 1 | B (B=less than 200 fold, but greater than 20 fold) | B (B=less than 200 fold, but greater than 20 fold) | C (C=less than 20 fold) | < 0.1 | – | – | – | – | – | – | – |
| N#Cc1cnn2c(NCc3ccccc3-n3cccn3)nc(N3CCC(N)CC3)nc12 [Compound 34] | 1 to 10 | > 1 | 0.1 to 1 | 0.1 to 1 | B (B=less than 200 fold, but greater than 20 fold) | C (C=less than 20 fold) | C (C=less than 20 fold) | < 0.1 | – | – | – | – | – | – | – |
| CC(C)c1cnn2c(NCc3ccccc3-n3cccn3)nc(C(=O)N3CCN(C)CC3)nc12 [Compound 7] | > 10 | – | – | – | – | – | – | – | – | – | – | – | – | – | – |
